Test results taken from BigSolDB 2.1.

O=C1OC(=O)c2c(Cl)cccc21
solubility (mole fraction)
Settings	283.15 K	288.15 K	293.15 K	298.15 K	303.15 K	308.15 K	313.15 K	318.15 K	323.15 K	328.15 K
in acetonitrile	0.0676	0.0793	0.092	0.106	0.123	0.142	0.165	0.193	0.225	0.263
in cyclohexane	0.00042	0.000507	0.000554	0.000764	0.000909	0.00108	0.00136	0.00176	0.00222	0.00277
in methanol	0.0637	0.0698	0.0766	0.09	0.0968	0.104	0.116	0.126	0.144	0.161
in methyl acetate	0.0882	0.0987	0.112	0.123	0.145	0.157	0.176	0.198	0.223	0.252
in tert-amyl alcohol	0.00423	0.00548	0.00677	0.00875	0.0113	0.0125	0.0146	0.0184	0.0228	0.0288
in tetrachloromethane	0.00307	0.004	0.00497	0.00605	0.00729	0.00873	0.0104	0.0125	0.0146	0.0177

O=C1OC(=O)c2cc(Cl)ccc21
solubility (mole fraction)
Settings	283.15 K	288.15 K	293.15 K	298.15 K	303.15 K	308.15 K	313.15 K	318.15 K	323.15 K	328.15 K
in acetonitrile	0.102	0.121	0.143	0.167	0.194	0.221	0.249	0.277	0.304	0.331
in cyclohexane	0.000482	0.000684	0.000895	0.00109	0.00139	0.00161	0.00203	0.00246	0.00315	0.00399
in methanol	0.0848	0.0944	0.118	0.136	0.167	0.196	0.228	0.266	0.309	0.356
in methyl acetate	0.134	0.163	0.19	0.216	0.241	0.269	0.296	0.33	0.362	0.407
in tert-amyl alcohol	0.00738	0.00942	0.0129	0.0166	0.0219	0.0274	0.0376	0.0489	0.065	0.0823
in tetrachloromethane	0.00888	0.0103	0.0128	0.0142	0.0169	0.0191	0.0212	0.0233	0.0254	0.0274
